Assay results taken from US5795907A, “Gastin and CCK receptor ligands” (James Black Foundation Limited, priority 1994, dated 1998).

Key:
[1] = target: T1, CCKA (Cavia porcellus, UniProt Q63931); assay: CCKA radioligand binding assay in guinea-pig pancreas membranes ([125I]-CCK8(S)); settings: PD134,308 present, 150 minutes at 21±3°; for Ki: read-out: CCKA pKi (converted)
T1 construct: The pancreatata were homogenised in 40 ml ice-cold HEPES buffer using a polytron; from tissue; host or cells: pancreas membranes of male Dunkin Hartley guinea-pigs
T1 sequence (Q63931 1-430): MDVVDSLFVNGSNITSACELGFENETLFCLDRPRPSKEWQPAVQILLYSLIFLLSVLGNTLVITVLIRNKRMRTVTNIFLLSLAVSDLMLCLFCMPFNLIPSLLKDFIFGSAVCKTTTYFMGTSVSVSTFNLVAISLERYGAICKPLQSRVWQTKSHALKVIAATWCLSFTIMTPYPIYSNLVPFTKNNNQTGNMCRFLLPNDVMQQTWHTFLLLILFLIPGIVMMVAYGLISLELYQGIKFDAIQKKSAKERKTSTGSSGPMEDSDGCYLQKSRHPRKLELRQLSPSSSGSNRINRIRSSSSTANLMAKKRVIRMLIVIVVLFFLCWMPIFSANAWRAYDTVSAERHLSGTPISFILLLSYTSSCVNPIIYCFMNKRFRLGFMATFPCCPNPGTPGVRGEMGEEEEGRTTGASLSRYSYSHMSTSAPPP
Procedure, shortened: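 Competition for [125I]-CCK8(S) (added as […] solution) ran for 150 min at 21±3° in HEPES pH 7.2. Membranes came from male guinea-pig pancreas at 1 mg/ml original wet weight, with 0.375 μM PD134,308 in the suspension. Filter-bound counts were gamma-counted; 100 nM L-364,718 (added solution) defined non-specific binding.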

[2] = target: T2, CCKB receptor (Mus musculus, UniProt P56481); assay: CCKB receptor radioligand binding assay in mouse cortical membranes ([125I]-CCK8S); settings: [125I]-CCK8S 200 pM, 150 min at 21±3°; for Ki: read-out: CCKB pKi (converted)
T2 construct: The cortex was dissected, weighed and homogenised in 40ml ice-cold buffer; tissue Charles River (supplier of the CD1 mice); host or cells: cerebral cortex membranes of male CD1 mice
T2 sequence (P56481 1-453): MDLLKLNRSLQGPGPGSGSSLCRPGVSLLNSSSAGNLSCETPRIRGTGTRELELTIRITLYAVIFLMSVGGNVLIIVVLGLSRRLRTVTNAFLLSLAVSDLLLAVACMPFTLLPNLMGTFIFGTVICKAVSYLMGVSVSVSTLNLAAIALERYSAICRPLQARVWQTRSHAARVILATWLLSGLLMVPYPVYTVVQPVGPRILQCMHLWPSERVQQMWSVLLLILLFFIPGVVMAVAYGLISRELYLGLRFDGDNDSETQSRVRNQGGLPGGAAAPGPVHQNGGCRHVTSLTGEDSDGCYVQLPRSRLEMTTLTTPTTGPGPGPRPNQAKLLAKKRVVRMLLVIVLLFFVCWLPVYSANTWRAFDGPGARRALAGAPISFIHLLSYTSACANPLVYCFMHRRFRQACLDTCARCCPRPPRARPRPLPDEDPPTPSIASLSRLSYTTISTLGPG
Procedure, shortened: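 This was competition binding with tracer [125I]-CCK8S (200 pM solution added), run for 150 min at 21±3° on male CD1 mouse cortex membranes in pH 7.2 HEPES buffer with bacitracin. Filtration then gamma counting gave bound radioactivity. L-365,260 set the non-specific level.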

[3] = target: T3, gastrin (Rattus norvegicus, UniProt P30553); assay: gastrin antagonist activity in an immature rat stomach assay (pentagastrin-stimulated acid secretion); settings: cumulative pentagastrin dose-response curves after 60 min with drug; for Kb: read-out: Gastrin pKB (converted)
T3 construct: The stomach was lowered into a jacketed organ bath containing 40 ml of buffered solution; from tissue; host or cells: isolated perfused whole stomach of immature rats (ca. 21 days old)
T3 sequence (P30553 1-452): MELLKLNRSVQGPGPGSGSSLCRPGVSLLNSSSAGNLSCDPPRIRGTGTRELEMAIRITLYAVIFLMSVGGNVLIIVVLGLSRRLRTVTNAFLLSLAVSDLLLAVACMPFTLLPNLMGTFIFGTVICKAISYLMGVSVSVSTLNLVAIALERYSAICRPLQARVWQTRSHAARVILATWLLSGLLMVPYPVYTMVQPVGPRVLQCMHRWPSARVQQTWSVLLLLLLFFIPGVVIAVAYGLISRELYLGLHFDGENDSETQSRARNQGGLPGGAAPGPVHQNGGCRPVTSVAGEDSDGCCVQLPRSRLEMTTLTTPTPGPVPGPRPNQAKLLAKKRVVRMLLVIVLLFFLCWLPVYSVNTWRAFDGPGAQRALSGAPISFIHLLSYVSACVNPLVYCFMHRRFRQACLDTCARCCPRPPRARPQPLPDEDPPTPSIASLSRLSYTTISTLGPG
Procedure, shortened: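 Isolated lumen-perfused immature rat stomach (33-50 g, ca. 21 days) in 37° organ bath with 3×10^-8 M 5-methylfurmethide; acid secretion read by pH electrode in perfusate. Compound added to serosal bath after 120 min stabilisation; cumulative pentagastrin dose-response curves begun 60 min later and analysed by the Black et al. method.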

Ki [1] [nM]	Ki [2] [nM]	Kb [3] [nM]	CCKA pKi [1]	CCKB pKi [2]	Gastrin pKB [3]	Compound
501	200	200				O=C(NCC12CC3CC(CC(C3)C1)C2)c1cc2nc[nH]c2cc1C(=O)N[C@@H](Cc1ccccc1)C(=O)Nc1cc(C=NO)cc(C=NO)c1 [Example 118, 5-(1S-(3,5-dihydroxyiminomethylenephenylaminocarbonyl)-2-phenylethylaminocarbonyl)-6-(1-adamantanemethylaminocarbonyl)-benzimidazole]
1000	20	100				O=C(O)c1cccc(NC(=O)[C@H](Cc2ccccc2)NC(=O)c2cc3[nH]cnc3cc2C(=O)NCC23CC4CC(CC(C4)C2)C3)c1 [Example 79, 5-(1S-(3-carboxyphenylaminocarbonyl)-2-phenylethylaminocarbonyl)-6-(1-adamantanemethylaminocarbonyl)-benzimidazole]
158	5.01	3.16				O=C(NCC12CC3CC(CC(C3)C1)C2)c1cc2cc[nH]c2cc1C(=O)N[C@@H](Cc1ccccc1)C(=O)Nc1cc(-c2nn[nH]n2)cc(-c2nn[nH]n2)c1 [Example 105, 6-(1S-(3,5-ditetrazolylphenylaminocarbonyl)-2-phenylethylaminocarbonyl)-5-(1-adamantanemethylaminocarbonyl)-indole]
3160	5.01	1.26				O=C(O)c1cc(NC(=O)C(Cc2ccc(F)cc2F)NC(=O)c2cc3[nH]cnc3cc2C(=O)NCC23CC4CC(CC(C4)C2)C3)cc(C(=O)O)c1 (racemic) [Example 85, (±)-5-(1-(3,5-dicarboxyphenylaminocarbonyl)-2-(2,4-difluorophenyl)ethylaminocarbonyl)-6-(1-adamantanemethylaminocarbonyl)-benzimidazole]
398	15.8	63.1				O=C(NCC12CC3CC(CC(C3)C1)C2)c1cc2nc[nH]c2cc1C(=O)N[C@@H](Cc1ccccc1)C(=O)Nc1cccc(-c2nn[nH]n2)c1 [Example 83, 5-(1S-(3-tetrazolylphenylaminocarbonyl)-2-phenylethylaminocarbonyl)-6-(1-adamantanemethylaminocarbonyl)-benzimidazole]
			5.3	8.2	8.0	O=C(O)c1cccc(NC(=O)[C@H](Cc2ccccc2)NC(=O)c2cc3cc[nH]c3cc2C(=O)NCC23CC4CC(CC(C4)C2)C3)c1 [Example 90, 5-(1S-(3-carboxyphenylaminocarbonyl)-2-phenylethylaminocarbonyl)-6-(1-adamantanemethylaminocarbonyl)-indole]
			5.6	6.0	6.3	C[C@H](NC(=O)c1cc2[nH]cnc2cc1C(=O)NCC1CCCCCC1)C(=O)Nc1cc(C(=O)O)cc(C(=O)O)c1 [Example 72, 5-(1S-(3,5-dicarboxyphenylaminocarbonyl)-ethylaminocarbonyl)-6-(cycloheptanemethylaminocarbonyl)-benzimidazole]
			5.3	7.3	8.6	O=C(O)c1ccc(C(=O)O)c(NC(=O)[C@H](Cc2ccccc2)NC(=O)c2cc3[nH]cnc3cc2C(=O)NCC23CC4CC(CC(C4)C2)C3)c1 [Example 78, 5-(1S-(2,5-dicarboxyphenylaminocarbonyl)-2-phenylethylaminocarbonyl)-6-(1-adamantanemethylaminocarbonyl)-benzimidazole]
3160	631	100				C[C@H](NC(=O)c1cc2[nH]ccc2cc1C(=O)NCC12CC3CC(CC(C3)C1)C2)C(=O)Nc1cc(C(=O)O)cc(C(=O)O)c1 [Example 48, 6-(1S-(3,5-dicarboxyphenylaminocarbonyl)-ethylaminocarbonyl)-5-(1-adamantanemethylaminocarbonyl)-indole]
2510	3.98	3.98				Cn1ccc2cc(C(=O)NCC34CC5CC(CC(C5)C3)C4)c(C(=O)N[C@@H](Cc3ccccc3)C(=O)Nc3cc(C(=O)O)cc(C(=O)O)c3)cc21 [Example 37, 6-(1S-(3,5-dicarboxyphenylaminocarbonyl)-2-phenylethylaminocarbonyl)-5-(1-adamantanemethylaminocarbonyl)-N-methyl-indole]
1260	25.1	31.6				O=C(O)c1ccc(Cl)c(NC(=O)[C@H](Cc2ccccc2)NC(=O)c2cc3[nH]cnc3cc2C(=O)NCC23CC4CC(CC(C4)C2)C3)c1 [Example 127, 5-(1S-(^2-chloro-5-carboxyphenylaminocarbonyl)-2-phenylethylaminocarbonyl)-6-(1-adamantanemethylaminocarbonyl)-benzimidazole]
5010	501	100				O=C(O)c1cc(NC(=O)[C@H](Cc2ccccc2)NC(=O)C2Cc3[nH]cnc3CN2C(=O)NCC23CC4CC(CC(C4)C2)C3)cc(C(=O)O)c1 (mixture of isomers) [Example 126, (±)-6-(1S-(3,5-dicarboxyphenylaminocarbonyl)-2-phenylethylaminocarbonyl)-5-(1-adamantanemethylaminocarbonyl)-4,5,6,7-tetrahydro-5-aza-benzimidazole]
2000	501	158				O=C(NCC12CC3CC(CC(C3)C1)C2)c1cc2nc[nH]c2cc1C(=O)N[C@@H](Cc1ccccc1)C(=O)NCc1ccc(F)cc1 [Example 67, 5-(1S-(4-fluorophenylmethylaminocarbonyl)-2-phenylethylaminocarbonyl)-6-(1-adamantanemethylaminocarbonyl)-benzimidazole]
3160	0.794	0.251				O=C(O)c1cc(NC(=O)[C@H](Cc2ccccc2F)NC(=O)c2cc3cc[nH]c3cc2C(=O)NCC23CC4CC(CC(C4)C2)C3)cc(C(=O)O)c1 [Example 87, 5-(1S-(3,5-dicarboxyphenylaminocarbonyl)-2-(2-fluorophenyl)ethylaminocarbonyl)-6-(1-adamantanemethylaminocarbonyl)-indole]
			5.6	8.5	9.0	3-(1S-(3,5-dicarboxyphenylaminocarbonyl)-2-phenyl ethylaminocarbonyl)-2-(1-adamantanemethylaminocarbonyl)-5-aminonaphthalene [Example 116]
2000	20	20				O=C(O)c1cc(NC(=O)[C@H](Cc2ccccc2)NC(=O)C2Cc3ccccc3CN2C(=O)NCC23CC4CC(CC(C4)C2)C3)cc(C(=O)O)c1 (stereo partly drawn) [Example 57, 3-(1S-(3,5-dicarboxyphenylaminocarbonyl)-2-phenylethylaminocarbonyl)-2-(1-adamantanemethylaminocarbonyl)-1,2,3,4-tetrahydroisoquinoline]
